Data from article PMC6196238, “Novobiocin, a Newly Found TRPV1 Inhibitor, Attenuates the Expression of TRPV1 in Rat Intestine and Intestinal Epithelial Cell Line IEC-6” (Frontiers in Pharmacology, 2018).

Key:
TRPV1 = TRPV1 expression in IEC-6/TRPV1+ cells (qRT-PCR, western blot, immunofluorescence); type: cell-based, rat; conditions: for fluorescence intensity of TRPV1: pre-treatment 24 h, NOVO 10 μM, SB-705498 0.1 μM, Figure 2G
Protocol: The IEC-6/TRPV1^+ cells were cultured on coverslips in 24-well plates overnight. Briefly, cells were stimulated with NOVO (10 μM), SB-705498 (0.1 μM) for 24 h. At the end of incubation, cells were fixed with 4% paraformaldehyde in 0.1 M PBS for 20 min. The cells were then treated by 0.25% (v/v) TritonX-100 for 5 min, and washed again. Followed by blocking in 5% (v/v) horse serum for 60 min, cells were then incubated with primary antibodies for the anti-TRPV1 receptor antibody (1:1000, NB100-1617, Novus) overnight in a 4°C refrigerator. Alexa Flour® 488-conjugated goat anti-rabbit IgG (Zhongshan Goldenbridge Biotechnology) at 1:100 dilution was used as the secondary antibody that incubated cells for 60 min. Thereafter, the coverslips were mounted face down onto slides with mounting medium containing DAPI and stored at 4°C before microscopy. Fluorescence images were captured using a fluorescence microscope (Olympus, Japan).
qRT-PCR was performed to evaluate TRPV1 mRNA expression after NOVO treatment. The total RNA of the cells or tissues was isolated with an RNA isolation plus kit (Takara Shuzo, Kyoto, Japan), according to the manufacturer’s protocol. The quality of RNA was confirmed by agarose gel electrophoresis and an optical density measurement of A260/A280. The cDNAs were prepared using SYBR® Premix Ex Taq^TMII (Takara Shuzo, Kyoto, Japan) and the following primers: 5′-[…]-3′ and 5′-[…]-3′ for TRPV1, and 5′-[…]-3′, 5′-[…]-3′ for GAPDH were carried out by using the LightCycler480 System. The relative expression was calculated by the 2^-ΔΔC(t) method ([Livak and Schmittgen, 2001]).
After treatment, the cells or tissues were collected and washed with PBS. Membrane protein extracts were obtained with Membrane Protein Extraction Kit (Thermo Fisher Scientific Inc, United States), according to the manufacturer’s protocol. Protein concentrations were quantified by using the BCA Protein Assay kit (Beyotime, Shanghai, China). Equal amounts of protein were resolved by SDS-PAGE on a 10% polyacrylamide gel and transferred onto a polyvinylidene fluoride membrane. […]

IEC-6/TRPV1- cells = assay: CAP accumulation assay; type: cell-based, rat; conditions: 2.5-10 μM NOVO, 10 μM RR, 0.1 μM SB-705498, Figure 3D
Protocol: The transfected cells were grown to 80% confluence in 12-well plates. The experiment was divided into three parts: […] SB-705498, RR or NOVO was then added to the medium for another 15, 30, and 60 min. […] After incubation, the medium was removed, and cell layers were washed three times with ice-cold PBS and then extracted with Membrane Protein Extraction Kit (Thermo Fisher Scientific Inc, Rockford, IL, United States), according to the manufacturer’s protocol. The cytosolic protein extracts were stored at -80°C until LC-MS/MS analysis. The plasma samples and protein sample with 100 μL were extracted with 400 μL of methanol involving IS (verapamil 50 ng⋅mL^-1) by vortex-mix for 1 min, ultrasonic extraction for 1 h, and then centrifugation for 30 min at 15000 g. The supernatant was transferred into a borosilicate glass and 2 μL was subjected to LC-MS/MS analysis. The LC-MS/MS system consisted of Agilent 6460 Triple Quadrupole LC/MS systems via an ESI interface. The samples were separated on an Agilent ZORBAX SB-C18 column (3.5 μm, 2.1 mm × 150 mm) and the column temperature was maintained at 30°C. The mobile phase consisted of acetonitrile and water contains 0.1% formic acid (70:30, v/v). The flow rate was 0.2 mL⋅min^-1. The ion source was an electrospray ionization interface in the positive mode. […] Other parameters were as follows: spray voltage, 4.0 kV; capillary temperature, 350°C; gas flow, 10 L⋅min^-1.

IEC-6/TRPV1+ cells [1] = assay: CAP accumulation assay; type: cell-based, rat; conditions: for accumulation of CAP after inhibitor added at 60 min: CAP alone 60 min, then SB-705498 or NOVO (5 and 10 μM), at 75 min, Figure 3E
Protocol: The transfected cells were grown to 80% confluence in 12-well plates. […] SB-705498, RR or NOVO was then added to the medium for another 15, 30, and 60 min. […] After incubation, the medium was removed, and cell layers were washed three times with ice-cold PBS and then extracted with Membrane Protein Extraction Kit (Thermo Fisher Scientific Inc, Rockford, IL, United States), according to the manufacturer’s protocol. The cytosolic protein extracts were stored at -80°C until LC-MS/MS analysis.
The plasma samples and protein sample with 100 μL were extracted with 400 μL of methanol involving IS (verapamil 50 ng⋅mL^-1) by vortex-mix for 1 min, ultrasonic extraction for 1 h, and then centrifugation for 30 min at 15000 g. The supernatant was transferred into a borosilicate glass and 2 μL was subjected to LC-MS/MS analysis.
The LC-MS/MS system consisted of Agilent 6460 Triple Quadrupole LC/MS systems via an ESI interface. The samples were separated on an Agilent ZORBAX SB-C18 column (3.5 μm, 2.1 mm × 150 mm) and the column temperature was maintained at 30°C. The mobile phase consisted of acetonitrile and water contains 0.1% formic acid (70:30, v/v). The flow rate was 0.2 mL⋅min^-1. The ion source was an electrospray ionization interface in the positive mode. […] Other parameters were as follows: spray voltage, 4.0 kV; capillary temperature, 350°C; gas flow, 10 L⋅min^-1.

IEC-6/TRPV1+ cells [2] = assay: LDH release assay (cell membrane integrity); conditions: for LDH release: IEC-6/TRPV1+; for LDH release compared with the control: NOVO 2.5, 5, 10 μM, CAP 25 μM, RR 10 μM, SB-705498 0.1 μM, 12 and 24 h
Protocol: The transfected cells were plated in 12-well plates. […] The cells were centrifuged at 1000 g for 5 min. Next, 50 μL of supernatants were aspirated and the rest of supernatants were discarded. The cells were washed twice with deionized water and then lysed by ultrasonic wave cracker. And then cell lysate and supernatants were analyzed by using LDH Release Assay Kit, according to the manufacturer’s instructions.

LDH release (IEC-6/TRPV1+ cells [2]; 1 μM, 12 h)	LDH release (IEC-6/TRPV1+ cells [2]; 1 μM, 24 h)	LDH release (IEC-6/TRPV1+ cells [2]; 5 μM, 12 h)	LDH release (IEC-6/TRPV1+ cells [2]; 5 μM, 24 h)	LDH release (IEC-6/TRPV1+ cells [2]; 10 μM, 12 h)	LDH release (IEC-6/TRPV1+ cells [2]; 10 μM, 24 h)	LDH release compared with the control (IEC-6/TRPV1+ cells [2])	LDH release (IEC-6/TRPV1+ cells [2]; 0.1 μM, 12 h)	LDH release (IEC-6/TRPV1+ cells [2]; 0.1 μM, 24 h)	SMILES	expression of TRPV1 mRNA and protein (TRPV1; 2.5-10 μM NOVO, over 24 h, Figures 2A,B,F)	fluorescence intensity of TRPV1 (TRPV1)	accumulation of CAP, co-incubation (IEC-6/TRPV1- cells)	accumulation of CAP after inhibitor added at 60 min (IEC-6/TRPV1+ cells [1])	accumulation of CAP, co-incubation (IEC-6/TRPV1+ cells [1]; CAP in combination with 2.5-10 μM NOVO, vs control, Figure 3C)	accumulation of CAP in cells after 24 h pre-treatment (IEC-6/TRPV1+ cells [1]; NOVO 2.5-10 μM 24 h prior to 25 μM CAP for 60 min, Figure 3B)
0.415 ± 0.169 gprot⋅mL ^-1	0.353 ± 0.026 gprot⋅mL ^-1	0.356 ± 0.090 gprot⋅mL ^-1	0.300 ± 0.052 gprot⋅mL ^-1	0.337 ± 0.005 gprot⋅mL ^-1	0.299 ± 0.072 gprot⋅mL ^-1	not any significant difference			CO[C@@H]1[C@@H](OC(N)=O)[C@@H](O)[C@H](Oc2ccc3c(O)c(NC(=O)c4ccc(O)c(CC=C(C)C)c4)c(=O)oc3c2C)OC1(C)C [NOVO, novobiocin]	dramatically attenuate	reduced	did not change	decreased immediately	strong inhibition	positive correlation with a decrease in the accumulation of CAP
						not any significant difference	0.469 ± 0.124 gprot⋅mL ^-1	0.423 ± 0.149 gprot⋅mL ^-1	O=C(Nc1ccccc1Br)N[C@@H]1CCN(c2ccc(C(F)(F)F)cn2)C1 [SB-705498]		reduced	did not change	decreased immediately		
